Molecules are shown by their SMILES. Converted amounts (≈) assume the structure as drawn.

In test [1] the test system is Aspergillus fumig. Briefly: Antimycotic in-vitro activity, serial dilution test (MIC). It is filed as cell-based. Particulars: 96 h, Reihenverdünnungstest, 5 x 10^4 Keimen/ml Substrat, Sabourand's milieu d'epreuve, 20°C, 96 Stunden, read-out: MHK-Werte in γ/ml Nährmedium, Aspergillus fumig. The protocol:
(§1) Versuchsbeschreibung: • Die in-vitro-Prüfungen wurden im Reihenverdünnungstest mit Keiminokula von durchschnittlich 5 x 10^4 Keimen/ml Substrat durchgeführt. Als Nährmedium dienten • a) für Dermatophyten und Schimmelpilze: Sabourand's milieu d'epreuve • b) für Hefen: • Fleischextrakt-Traubenzucker-Bouillon.
(§2) Die Bebrütungstemperatur betrug 20°C, die Bebrütungsdauer lag bei 24 bis 96 Stunden bei Hefen und 96 Stunden bei Dermatophyten und Schimmelpilzen.

For test [2], the system named is Candida albicans. Described as above. It is filed as cell-based. Particulars: Reihenverdünnungstest, 5 x 10^4 Keimen/ml Substrat, Fleischextrakt-Traubenzucker-Bouillon, 20°C, 24 bis 96 Stunden, read-out: MHK-Werte in γ/ml Nährmedium, Candida albicans. The protocol: as §1, §2
For test [3], the system named is Microsporum canis. Described as above. It is filed as cell-based. Particulars: 96 h, Reihenverdünnungstest, 5 x 10^4 Keimen/ml Substrat, Sabourand's milieu d'epreuve, 20°C, 96 Stunden, read-out: MHK-Werte in γ/ml Nährmedium, Microsporum canis. The protocol: as §1, §2
Test [4] has as its system Trichophyton mentagr. The description is as above. Type of test: cell-based. Particulars: 96 h, Reihenverdünnungstest, 5 x 10^4 Keimen/ml Substrat, Sabourand's milieu d'epreuve, 20°C, 96 Stunden, read-out: MHK-Werte in γ/ml Nährmedium, Trichophyton mentagr. On the procedure: as §1, §2
Test [5] has as its system Candida-Zellen. Put plainly: Antimycotic in-vivo activity (oral) in mouse candidosis. As to conditions: for Wirkung (Überlebende am 6.Tag p.i.): Mäuse SPF-CF1, intravenös infiziert mit 1 - 2 x 10^6 Candida-Zellen, jeweils 50 - 100 mg/kg oral, 1 Stunde vor und 7 Stunden nach Infektion; for Wirkung im Vergleich zu den bekannten Verbindungen (A) und (B): Mäusecandidose, oral. Further details: species or system Mäuse vom Typ SPF-CF1; key to Wirkung (Überlebende am 6.Tag p.i.): +++++: = sehr gute Wirkung = 90 % Überlebende am 6.Tag p.i.; ++++: = gute Wirkung = 80 % Überlebende am 6.Tag p.i.; +++: = Wirkung = 60 % Überlebende am 6.Tag p.i.; ++: = schwache Wirkung = 40 % Überlebende am 6.Tag p.i.; +: = Spur Wirkung = unter 40 % Überlebende am 6. Tag; k.W.: = keine Wirkung. On the procedure: Antimykotische in-vivo-Wirksamkeit (oral) bei Mäusecandidose
Mäuse vom Typ SPF-CF1 wurden intravenös mit 1 - 2 x 10^6 logarithmisch wachsenden Candida-Zellen, die in physiologischer Kochsalzlösung suspendiert werden, infiziert. Eine Stunde vor und sieben Stunden nach der Infektion werden die Tiere mit jeweils 50 - 100 mg/kg Körpergewicht der Präparate oral behandelt.
Unbehandelte Tiere starben 3 bis 6 Tage post infektionem. Die Überlebensrate am 6. Tag post infektionem betrug bei unbehandelten Kontrolltieren etwa 5 %.

In test [6] the test system is Torulopsis glabrata. Briefly: Antimycotic in-vitro activity, serial dilution test (MIC). Type of test: cell-based. Particulars: Nakaseomyces glabratus; Reihenverdünnungstest, 5 x 10^4 Keimen/ml Substrat, Fleischextrakt-Traubenzucker-Bouillon, 20°C, 24 bis 96 Stunden; read-out: MHK-Werte in γ/ml Nährmedium, Torulopsis glabrata. On the procedure:
as §1, §2

The subject of test [7] is Dermatophyten, Schimmelpilze, Hefen. Put plainly: Antimycotic in-vitro activity, serial dilution test, overall comparison with prior art. It is filed as cell-based. As to conditions: in-vitro Reihenverdünnungstest. On the procedure: as §1, §2

For the molecule `OC(Cn1cncn1)c1ccc(-c2ccc(Cl)cc2)cc1` (centres unmarked) [(B), reference compound], the MIC was over 64 µg/mL in test [1], over 64 µg/mL in test [2], over 64 µg/mL in test [3] and 4 µg/mL (≈ 13.3 µM) in test [4]. In addition, the “Wirkung (Überlebende am 6.Tag p.i.)” value in test [5] is on record as “k.W”.

Consider `CC(C(O)c1ccc(Cl)cc1)n1cncn1` (centres unmarked) [(A), reference compound], for which the MIC in test [2] and in test [4] was over 64 µg/mL each time. In addition, the “Wirkung (Überlebende am 6.Tag p.i.)” value in test [5] was “k.W”.

As for `COc1cccc(CC(C(O)C(C)(C)COc2ccc(Cl)cc2)n2cncn2)c1` (centres unmarked) [Beispiel 87], the MIC in test [1] was 16 µg/mL (≈ 38.5 µM); in test [2], under 1 µg/mL; in test [3], 8 µg/mL (≈ 19.2 µM); in test [6], 2 µg/mL (≈ 4.81 µM); in test [4], under 1 µg/mL. Also, the “Wirkung (Überlebende am 6.Tag p.i.)” value in test [5] is recorded as “++ (= schwache Wirkung = 40 % Überlebende am 6.Tag p.i.)”. Also, the “Wirkung im Vergleich zu den bekannten Verbindungen (A) und (B)” value in test [5] was “bessere Wirkung”. In addition, the “antimykotische Wirkung im Vergleich zu den bekannten Verbindungen (A) und (B)” value in test [7] is reported as “bessere antimykotische Wirkung”.

Turning to `CC(C)(CSc1ccccc1)C(O)C(Cc1ccc(Cl)cc1)n1cncn1` (centres unmarked) [Beispiel 37], the MIC was 64 µg/mL (≈ 159 µM) in test [1]; 4 µg/mL (≈ 9.95 µM) in test [2]; 4 µg/mL (≈ 9.95 µM) in test [3]; 2 µg/mL (≈ 4.98 µM) in test [6]; under 1 µg/mL in test [4]. Besides, the “antimykotische Wirkung im Vergleich zu den bekannten Verbindungen (A) und (B)” value in test [7] is on record as “bessere antimykotische Wirkung”.

With `CCCCC(C(O)C(C)(C)COc1ccc(-c2ccccc2)cc1)n1cncn1` (centres unmarked) [Beispiel 100], the MIC is 4 µg/mL (≈ 10.2 µM) in test [1]; 8 µg/mL (≈ 20.3 µM) in test [2]; 8 µg/mL (≈ 20.3 µM) in test [3]; 32 µg/mL (≈ 81.3 µM) in test [6]; under 1 µg/mL in test [4]. For the same molecule, in test [5], the “Wirkung (Überlebende am 6.Tag p.i.)” value is on record as “+++ (= Wirkung = 60 % Überlebende am 6.Tag p.i.)”. Also, the “Wirkung im Vergleich zu den bekannten Verbindungen (A) und (B)” value in test [5] is “bessere Wirkung”. Moreover, in test [7], the “antimykotische Wirkung im Vergleich zu den bekannten Verbindungen (A) und (B)” value is “bessere antimykotische Wirkung”.

On to `COCC(C)(C)C(O)C(Cc1ccc(Cl)cc1Cl)n1cncn1` (centres unmarked) [Beispiel 7], for which the MIC came out at 64 µg/mL (≈ 179 µM) in test [1]; 8 µg/mL (≈ 22.3 µM) in test [2]; 8 µg/mL (≈ 22.3 µM) in test [3]; 16 µg/mL (≈ 44.7 µM) in test [6]; 8 µg/mL (≈ 22.3 µM) in test [4]. Moreover, in test [7], the “antimykotische Wirkung im Vergleich zu den bekannten Verbindungen (A) und (B)” value is given as “bessere antimykotische Wirkung”.

As for `CC(C)(CSc1ccc(Cl)cc1)C(O)Cn1ccnc1` (centres unmarked) [Beispiel 3, 4-(4-Chlorphenylmercapto)-3,3-dimethyl-1-(imidazol-1-yl)-butan-2-ol], the MIC in test [1] turned out to be 16 µg/mL (≈ 51.5 µM); in test [2], 2 µg/mL (≈ 6.43 µM); in test [3], 2 µg/mL (≈ 6.43 µM); in test [6] it was 2 µg/mL (≈ 6.43 µM); in test [4], 8 µg/mL (≈ 25.7 µM). Also, the “antimykotische Wirkung im Vergleich zu den bekannten Verbindungen (A) und (B)” value in test [7] is “bessere antimykotische Wirkung”.

In the case of `CC(C)(COc1ccc(Cl)cc1)C(O)C(CC1CCCCC1)n1cncn1` (centres unmarked) [Beispiel 2, 1-(4-Chlorphenoxy)-5-cyclohexyl-2,2-dimethyl-4-(1,2,4-triazol-1-yl)-pentan-3-ol], the MIC is 2 µg/mL (≈ 5.1 µM) in test [1]; under 1 µg/mL in test [2]; 2 µg/mL (≈ 5.1 µM) in test [3]; under 1 µg/mL in test [6]; under 1 µg/mL in test [4]. For the same molecule, the “antimykotische Wirkung im Vergleich zu den bekannten Verbindungen (A) und (B)” value in test [7] is recorded as “bessere antimykotische Wirkung”.

Take `CC(C)(COc1ccc(-c2ccccc2)cc1)C(O)Cn1ccnc1` (centres unmarked) [Beispiel 96]: the MIC in test [1] is 64 µg/mL (≈ 190 µM); in test [2], under 1 µg/mL; in test [3], under 1 µg/mL; in test [6], 16 µg/mL (≈ 47.6 µM); in test [4] it was under 1 µg/mL. In addition, the “antimykotische Wirkung im Vergleich zu den bekannten Verbindungen (A) und (B)” value in test [7] was “bessere antimykotische Wirkung”.

On to `C=CCC(C(O)C(C)(C)Oc1ccc(Cl)cc1)n1cncn1` (centres unmarked) [Beispiel 56], for which the MIC was 8 µg/mL (≈ 24.9 µM) in test [1]; 4 µg/mL (≈ 12.4 µM) in test [2]; 4 µg/mL (≈ 12.4 µM) in test [3]; 8 µg/mL (≈ 24.9 µM) in test [6]; 8 µg/mL (≈ 24.9 µM) in test [4]. In addition, in test [7], the “antimykotische Wirkung im Vergleich zu den bekannten Verbindungen (A) und (B)” value was “bessere antimykotische Wirkung”.

Regarding `CC(C)(Oc1ccc(Cl)cc1)C(O)C(Cc1ccccc1)n1cncn1` (centres unmarked) [Beispiel 26], the MIC was 8 µg/mL (≈ 21.5 µM) in test [1]; under 1 µg/mL in test [2]; under 1 µg/mL in test [3]; 4 µg/mL (≈ 10.8 µM) in test [6]; under 1 µg/mL in test [4]. Besides, in test [7], the “antimykotische Wirkung im Vergleich zu den bekannten Verbindungen (A) und (B)” value was “bessere antimykotische Wirkung”.

On to `C=CCCC(C(O)C(C)(C)COc1ccc(Cl)c(Cl)c1)n1cncn1` (centres unmarked) [Beispiel 95], for which the MIC was 8 µg/mL (≈ 20.8 µM) in test [1]; 2 µg/mL (≈ 5.2 µM) in test [2]; under 1 µg/mL in test [3]; 32 µg/mL (≈ 83.3 µM) in test [6]; under 1 µg/mL in test [4]. Moreover, the “antimykotische Wirkung im Vergleich zu den bekannten Verbindungen (A) und (B)” value in test [7] was “bessere antimykotische Wirkung”.

For `Cc1ccc(CC(C(O)C(C)(C)COc2ccc(Cl)cc2)n2cncn2)cc1` (centres unmarked) [Beispiel 10], the MIC in test [1] is 4 µg/mL (≈ 10 µM); in test [2], under 1 µg/mL; in test [3], under 1 µg/mL; in test [6], under 1 µg/mL; in test [4], under 1 µg/mL. In addition, in test [7], the “antimykotische Wirkung im Vergleich zu den bekannten Verbindungen (A) und (B)” value was “bessere antimykotische Wirkung”.

Regarding `CCOC(=O)c1ccc(OC(C)(C)C(O)C(Cc2ccc(Cl)cc2Cl)n2cncn2)cc1` (centres unmarked) [Beispiel 64], the MIC was 64 µg/mL (≈ 134 µM) in test [1]; under 1 µg/mL in test [2]; 2 µg/mL (≈ 4.18 µM) in test [3]; 64 µg/mL (≈ 134 µM) in test [6]; 4 µg/mL (≈ 8.36 µM) in test [4]. In addition, in test [7], the “antimykotische Wirkung im Vergleich zu den bekannten Verbindungen (A) und (B)” value is on record as “bessere antimykotische Wirkung”.

Take `CC(C)(Oc1ccc(Cl)cc1Cl)C(O)C(Cc1ccc(Cl)cc1Cl)n1cncn1` (centres unmarked) [Beispiel 25]: the MIC is over 64 µg/mL in test [1]; over 64 µg/mL in test [2]; 8 µg/mL (≈ 16.8 µM) in test [3]; 64 µg/mL (≈ 135 µM) in test [6]; under 1 µg/mL in test [4]. Besides, in test [7], the “antimykotische Wirkung im Vergleich zu den bekannten Verbindungen (A) und (B)” value is on record as “bessere antimykotische Wirkung”.

Turning to `CC(C)(Cc1ccc(Cl)cc1)C(O)C(Cc1ccccc1)n1ccnc1` (centres unmarked) [Beispiel 128], the MIC in test [1] is 8 µg/mL (≈ 21.7 µM); in test [2], under 1 µg/mL; in test [3] it was 16 µg/mL (≈ 43.4 µM); in test [6], 8 µg/mL (≈ 21.7 µM); in test [4] it was under 1 µg/mL. For the same molecule, the “Wirkung (Überlebende am 6.Tag p.i.)” value in test [5] is given as “++++ (= gute Wirkung = 80 % Überlebende am 6.Tag p.i.)”. The “Wirkung im Vergleich zu den bekannten Verbindungen (A) und (B)” value in test [5] is “bessere Wirkung”. The “antimykotische Wirkung im Vergleich zu den bekannten Verbindungen (A) und (B)” value in test [7] is given as “bessere antimykotische Wirkung”.

The values above are taken from patent EP0083750A1, “Antimycotic azolyl butanols” (BAYER AG, priority 1981, dated 1983).
